# Laboratory results: patent US7554012B2, “Plants and plant cells exhibiting resistance to AMPA, and methods for making the same” (priority 1998, dated 2009)
# Where two headings read alike, the source gives them in different places.
# Assays:
# [1] = tested on: Tobacco callus; assay: Tobacco callus growth on plates with AMPA or N-acetyl AMPA; assay type: cell-based, Nicotiana tabacum cv. "Samsun"; conditions: plates with 0.1 mM or 0.4 mM, up to three weeks
# Procedure: Tobacco callus was generated from leaf pieces of wild type Nicotiana tabacum cv. “Samsun” tobacco on MS104 plates (MS salts 4.3 g/l, sucrose 30 g/l, B5 vitamins 500X 2 ml/l, NAA 0.1 mg/l, and Bacto Agar […]). Callus tissue was applied to plates with or without AMPA and with or without N-acetyl AMPA. Plates contained AMPA or N-acetyl AMPA at concentrations of 0.1 mM or 0.4 mM. Plates were incubated for up to three weeks and monitored periodically.
# [2] = target: PhnO enzyme (Escherichia coli, UniProt P16691, P2A)
# Procedure: The apparent Km (Km) and Vmax (Vmax) of PhnO enzyme were determined for the substrates aminomethlyphosphonate and acetyl-CoA. Determination of the PhnO Km and Vmax were made by endpoint kinetic analyses, determining the enzyme velocity in consuming each substrate at varying substrate concentrations, and plotting the inverse of the enzyme velocity versus the inverse of the substrate concentration to produce a Lineweaver-Burk plot of enzyme kinetics. The conversion of [^14C]-AMPA to N-acetyl-[^14C]-AMPA was monitored as in example 2, using enzyme in a desalted crude lysate of E. coli expressing phnO from pMON15032, produced as in example 4. […] Enzyme reactions were incubated at 37° C. for 5 minutes and quenched with 1 volume of 100 mM sodium acetate (NaOAc), pH 4.4, in ethanol. Samples were analyzed by HPLC to determine the amount of [^14C]-AMPA converted to N-acetyl-[^14C]-AMPA.
# [3] = tested on: female gametes; conditions: under optimal conditions; cited from earlier work
# [4] = AMPA substrate 200 nm (nanomoles)
# Sequence of PhnO enzyme (P16691 whole entry P2A): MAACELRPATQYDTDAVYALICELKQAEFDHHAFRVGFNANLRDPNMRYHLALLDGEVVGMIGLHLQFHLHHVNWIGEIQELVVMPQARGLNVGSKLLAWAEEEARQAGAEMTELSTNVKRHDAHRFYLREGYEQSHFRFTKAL
compound,measurement,setting,value
"NCP(=O)(O)O [AMPA, N-aminomethyl phosphonic acid]",growth of tobacco callus tissue,[1],severely inhibited
same,% Turnover,[2]; [4],39.5%
same,Velocity,[2]; [4],79 nm per minute per mg of protei
same,% Turnover,[2]; AMPA substrate 400 nm,35.1%
same,Velocity,[2]; AMPA substrate 400 nm,140 nm per minute per mg of protei
same,% Turnover,[2]; AMPA substrate 800 nm,32.9%
same,Velocity,[2]; AMPA substrate 800 nm,263 nm per minute per mg of protei
same,% Turnover,[2]; AMPA substrate 1200 nm,26.8%
same,Velocity,[2]; AMPA substrate 1200 nm,322 nm per minute per mg of protei
same,% Turnover,[2]; AMPA substrate 1600 nm,26.2%
same,Velocity,[2]; AMPA substrate 1600 nm,426 nm per minute per mg of protei
same,% Turnover,[2]; AMPA substrate 2000 nm,22.1%
same,Velocity,[2]; AMPA substrate 2000 nm,442 nm per minute per mg of protei
same,% Turnover,[2]; AMPA substrate 2400 nm,19.2%
same,Velocity,[2]; AMPA substrate 2400 nm,461 nm per minute per mg of protei
same,% Turnover,[2]; AMPA substrate 2800 nm,17.6%
same,Velocity,[2]; AMPA substrate 2800 nm,493 nm per minute per mg of protei
same,% Turnover,[2]; AMPA substrate 3200 nm,17.3%
same,Velocity,[2]; AMPA substrate 3200 nm,554 nm per minute per mg of protei
same,% Turnover,[2]; AMPA substrate 3600 nm,14.5%
same,Velocity,[2]; AMPA substrate 3600 nm,522 nm per minute per mg of protei
same,% Turnover,[2]; AMPA substrate 4000 nm,13.6%
same,Velocity,[2]; AMPA substrate 4000 nm,544 nm per minute per mg of protei
same,% Turnover,[2]; AMPA substrate 6000 nm,12.7%
same,Velocity,[2]; AMPA substrate 6000 nm,762 nm per minute per mg of protei
same,% Turnover,[2]; AMPA substrate 7600 nm,10%
same,Velocity,[2]; AMPA substrate 7600 nm,760 nm per minute per mg of protei
same,apparent Vmax,"[2]; AMPA substrate, Lineweaver-Burk plot",about 824 U/mg protein
same,Km,"[2]; read-out: apparent Km of PhnO for AMPA as a substrate, Lineweaver-Burk plot of Table 8 data",~9 mM
N-phosphono-methyl-glycine [Glyphosate],female gametes left capable of fertilization,[3],40-60%
